In patent US10227362B2 (priority 2015, dated 2019):
In brackets after ≈: the same amount, converted by molar mass.

Tests used:
M. tuberculosis H37R = experiment: M. tuberculosis LORA MIC; assay type: cell-based; settings: Mycobacterium tuberculosis, read-out: M. tuberculosis H37R LORA (MIC) (ug/mL)
[1] = test system: Mycobacterium tuberculosis H37Rv strain; experiment: In vitro MIC against M. tuberculosis H37Rv strain (MABA, Alamar Blue); assay type: cell-based
Experimental: Part I: The in vitro efficacy of anti-Mycobacterium tuberculosis compounds was tested using H37Rv strain.
On the day of the test, the compound was dissolved in pure DMSO (Sigma 276855-2L) to a concentration of 10 mg/mL which was used as the mother liquor of the compound. 30 μL of DMSO was added to wells of column 2 to 11 s of the v-bottom 96-well plates (Axygen-wipp02280). 30 μL of the mother liquor of the compound was added to the well of column 2, after mixing, 30 μL was taken from the well of column 2 and added to the well of column 3, and then pipetted and mixed. The operation was taken to column 10. Column 11 was free of medicine and contained only 30 μL of DMSO. This was the “motherplate” of the compound. From column 2 to 11, the corresponding concentration of the compound was 5, 2.5, 1.25, 0.625, 0.3125, 0.156, 0.078, 0.039, 0.02, 0 mg/mL. […] A flat bottom 96-well plate (Greiner 655090) was used as a “daughterplate”. 98 μL of 7H9 (Sigma M0178) medium was added to the wells of all daughterplates. 2 μL of compound was extracted from the motherboard and added to the corresponding daughter plate. Line A and H, column 1 and 12 of the daughterplate contained only 7H9 medium.
The H37Rv strain in the glycerol cryovial was inoculated into 7H9 medium containing 0.05% Tween 80 and cultured for 4 weeks at 37° C. in a shaker with 200 rpm. The bacterial liquid was washed twice with 7H9 medium containing 0.05% Tween 80 and resuspended in the same medium. The absorbance of the bacteria liquid was adjusted to OD550=0.4-0.5 using the same medium. The bacteria liquid was sub-packed in microcentrifuge tubes and stored at −80° C. Storage time was no more than 1 month. On the day of the test, the packaged bacteria liquid would be […]. The bacteria liquid was diluted 20 times and then diluted 50 times with 7H9 medium, and a total of 1000 times dilution. The bacteria liquid would be used to inoculate on the daughterplate. 100 μL of bacterial liquid was inoculated in each well of the daughterboard, 100 μL 7H9 medium was added to column 12 and without bacteria liquid.
The test daughterplate was placed in an incubator at 37° C. and the humidity was maintained at >80%. A week later, 12.5 μL of 7H9 medium containing 20% Tween 80 and 20 μL of Alamar Blue (Invitrogen DAL1100) were added to the well of a column 1 containing bacteria and the well of a column 12 without bacteria every day, and then continue to incubate for 24 hours and observed. When the added Alamar Blue was reduced to pink in 24 hours by the bacteria liquid in the well of column 1, the 7H9 medium containing 20% Tween 80 and Alamar Blue were added to all wells on the test plate and the fluorescence values were measured after incubation for 24 hours at 37° C.

Vero Cell = experiment: Vero cell cytotoxicity; assay type: cell-based; settings: Chlorocebus sabaeus, Vero cells
[2] = test system: Mycobacterium bovis BCG strain TMC1019 (ATCC35737); experiment: microbe, parasite or virus in culture; assay type: cell-based; settings: Mycobacterium tuberculosis variant bovis BCG, 24 h, read-out: M. bovis ATCC35737 (ug/mL)
P-glycoprotein (MDR1) = experiment: MDR1-MDCK cell bi-directional permeability; assay type: in vitro ADME; settings: dog
Text: 2. MDR1-MDCK cell bi-directional permeability evaluation experiment: MDR1-MDCK cells that permanently express human P-glycoprotein (P-glycoprotein) were planted on 96-well Insert cell plates and cultured for 4 to 7 days to form aggregated monolayer cells. The assessment of unidirectional (A→B) permeability of the fenoterol (low permeability marker) and propranolol (high permeability marker) and the bi-directional permeability of Digoxin (a P-glycoprotein substrate) were used to verify the quality of monolayer cells. The three control compounds do two complex wells.
The standard conditions for the transport experiments of the test compound were as follows: • Test concentration: 2 μM (DMSO≤1%); • Repetition: n=3; • Direction: bidirectional transport consisting of two directions: A→B and B→A; • Incubation time: single time point, 2.5 hours; • Transport buffer: HB SS, pH 7.4; • Incubation conditions: 37° C., 5% CO2, 95% relative humidity.
After the incubation, the sample solutions taken from the donor wells and the receive wells were immediately mixed with a cold acetonitrile solution containing the internal standard. And the amount of accumulation of intracellular compounds was measured by lysing the cells with a cold acetonitrile solution containing the internal standard. The concentrations of the test compound in all samples (including the initial administration solution, the supernatant of donor wells, the receiver solution, the cell lysate) were analyzed by the LC/MS/MS method. The concentration of the test compound was expressed by the ratio of its peak area to the internal standard peak area.

[3] = Pharmacokinetics in vivo in mice; settings: CD-1 male mice
Experimental: The pharmacokinetic characteristics of rodents after intravenous and oral administration of the compound were tested in a standard protocol. Specifically, the candidate compounds of the experiment were injected intravenously and administered orally for 7 to 10 weeks old CD-1 male mice. The oral preparation was a 0.5% suspension of methylcellulose, and the intravenous preparation was a clear solution of ethanol/DMSO/polyethylene glycol 400/pure water (10:10:50:30). Plasma and lung samples were collected and analyzed by the LC-MS/MS method and the pharmacokinetic parameters were calculated.

Structure (SMILES)	MIC (M. tuberculosis H37R) [µg/mL]	MIC [1] [µg/mL]	IC50 (Vero Cell) [µg/mL]	MIC [2] [µg/mL]	Papp A→B at 2.5 h, 2 μM (P-glycoprotein (MDR1); A to B, HBSS pH 7.4, read-out: MDR1-MDCK Monolayer Cell Bi-directional Permeability Parameters A to B) [×10⁻⁶ cm/s]	Papp B→A at 2.5 h, 2 μM (P-glycoprotein (MDR1); B to A, HBSS pH 7.4, read-out: MDR1-MDCK Monolayer Cell Bi-directional Permeability Parameters B to A) [×10⁻⁶ cm/s]	Pulmonary Drug Concentration (nM/Kg) PO 1 (h) ([3]; lung, 1 h after administration) [nM/kg]	Cmax ([3]; mouse, oral, plasma) [nM]
C[C@]1(CN2CCc3nc(-c4ccccc4F)ccc3C2)Cn2cc([N+](=O)[O-])nc2O1 [Compound 5, (S)-2-((2-(2-Fluorophenyl)-7,8-dihydro-1,6-naphthyridin-6(5H)-yl)methyl)-2-methyl-6-nitro-2,3-dihydroimidazo[2,1-b]oxazole]	1 to 32 (≈ 2.44 to 78.2 µM)	< 1	> 32	< 1	–	–	–	–
C[C@]1(CN2CCCc3nc(-c4ccc(F)cc4)ccc3C2)Cn2cc([N+](=O)[O-])nc2O1 [Compound 96, (S)-2-((2-(4-Fluorophenyl)-8,9-dihydro-5H-pyrido[3,2-c]azepin-6(7H)-yl)methyl)-2-methyl-6-nitro-2,3-dihydroimidazo[2,1-b]oxazole]	1 to 32 (≈ 2.36 to 75.6 µM)	< 1	> 32	< 1	–	–	–	–
C[C@]1(COc2ccc(N3CCC(Oc4ccc(OC(F)(F)F)cc4)CC3)cc2)Cn2cc([N+](=O)[O-])nc2O1 [OPC-67683, delamanid, reference compound]	–	–	–	–	0.09	0.17	1677	4740
C[C@]1(CN2CCc3nc(-c4cccc(F)c4)ccc3C2)Cn2cc([N+](=O)[O-])nc2O1 [Compound 6, (S)-2-((2-(3-Fluorophenyl)-7,8-dihydro-1,6-naphthyridin-6(5H)-yl)methyl)-2-methyl-6-nitro-2,3-dihydroimidazo[2,1-b]oxazole]	1 to 32 (≈ 2.44 to 78.2 µM)	< 1	> 32	< 1	–	–	–	–
C[C@]1(CN2CCc3nc(-c4cc(F)cc(F)c4)ccc3C2)Cn2cc([N+](=O)[O-])nc2O1 [Compound 14, (S)-2-((2-(3,5-Difluorophenyl)-7,8-dihydro-1,6-naphthyridin-6(5H)-yl)methyl)-2-methyl-6-nitro-2,3-dihydroimidazo[2,1-b]oxazole]	1 to 32 (≈ 2.34 to 74.9 µM)	< 1	> 32	< 1	–	–	–	–
C[C@]1(CN2CCc3nc(-c4ccco4)ccc3C2)Cn2cc([N+](=O)[O-])nc2O1 [Compound 25, (S)-2-((2-(Furan-2-yl)-7,8-dihydro-1,6-naphthyridin-6(5H)-yl)methyl)-2-methyl-6-nitro-2,3-dihydroimidazo[2,1-b]oxazole]	1 to 32 (≈ 2.62 to 83.9 µM)	< 1	> 32	< 1	–	–	–	–
C[C@]1(CN2CCc3nc(-c4ccc(F)c(F)c4)ccc3C2)Cn2cc([N+](=O)[O-])nc2O1 [Compound 12, (S)-2-((2-(3,4-Difluorophenyl)-7,8-dihydro-1,6-naphthyridin-6(5H)-yl)methyl)-2-methyl-6-nitro-2,3-dihydroimidazo[2,1-b]oxazole]	1 to 32 (≈ 2.34 to 74.9 µM)	< 1	> 32	< 1	–	–	–	–
C[C@]1(CN2Cc3nc(-c4ccc(F)c(F)c4)sc3C2)Cn2cc([N+](=O)[O-])nc2O1 [Compound 71, (S)-2-((2-(3,4-Difluorophenyl)-4H-pyrrolo[3,4-d]thiazol-5(6H)-yl)methyl)-2-methyl-6-nitro-2,3-dihydroimidazo[2,1-b]oxazole]	–	< 1	> 32	< 1	–	–	–	–
C[C@]1(CN2Cc3nc(-c4cccc(F)c4)sc3C2)Cn2cc([N+](=O)[O-])nc2O1 [Compound 70, (S)-2-((2-(3-Fluorophenyl)-4H-pyrrolo[3,4-d]thiazol-5(6H)-yl)methyl)-2-methyl-6-nitro-2,3-dihydroimidazo[2,1-b]oxazole]	–	< 1	> 32	< 1	–	–	–	–
C[C@]1(CN2Cc3nc(-c4ccc(F)cc4F)sc3C2)Cn2cc([N+](=O)[O-])nc2O1 [Compound 78, (S)-2-((2-(2,4-Difluorophenyl)-4H-pyrrolo[3,4-d]thiazol-5(6H)-yl)methyl)-2-methyl-6-nitro-2,3-dihydroimidazo[2,1-b]oxazole]	–	< 1	> 32	< 1	–	–	–	–
C[C@]1(CN2CCc3nc(-c4ccc(F)cc4)oc3C2)Cn2cc([N+](=O)[O-])nc2O1 [Compound 61, (S)-2-(4-Fluorophenyl)-5-((2-methyl-6-nitro-2,3-dihydroimidazo[2,1-b]oxazol-2-yl)methyl)-4,5,6,7-tetrahydrooxazolo[5,4-c]pyridine]	1 to 32 (≈ 2.5 to 80.1 µM)	< 1	> 32	< 1	–	–	–	–
C[C@]1(CN2CCc3nc(-c4ccc(F)cc4F)ccc3C2)Cn2cc([N+](=O)[O-])nc2O1 [Compound 13, (S)-2-((2-(2,4-Difluorophenyl)-7,8-dihydro-1,6-naphthyridin-6(5H)-yl)methyl)-2-methyl-6-nitro-2,3-dihydroimidazo[2,1-b]oxazole]	1 to 32 (≈ 2.34 to 74.9 µM)	< 1	> 32	< 1	–	–	–	–
CN(c1ccc(F)cc1)c1nc2c(s1)CN(C[C@@]1(C)Cn3cc([N+](=O)[O-])nc3O1)C2 [Compound 85, (S)—N-(4-Fluorophenyl)-N-methyl-5-((2-methyl-6-nitro-2,3-dihydroimidazo[2,1-b]oxazol-2-yl)methyl)-5,6-dihydro-4H-pyrrolo[3,4-d]thiazol-2-amine]	–	< 1	> 32	< 1	–	–	–	–
C[C@]1(CN2CCc3nc(-c4ccc(Cl)c(F)c4)ccc3C2)Cn2cc([N+](=O)[O-])nc2O1 [Compound 20, (S)-2-((2-(4-Chloro-3-fluorophenyl)-7,8-dihydro-1,6-naphthyridin-6(5H)-yl)methyl)-2-methyl-6-nitro-2,3-dihydroimidazo[2,1-b]oxazole]	1 to 32 (≈ 2.25 to 72.1 µM)	< 1	> 32	< 1	–	–	–	–
